One assay deals with huSTING (HAQ) (Homo sapiens (Human), UniProt Q86WV6, G230A/H232R/R293Q/R71H). Put plainly: THP-1 reporter cell line assay, THP-1 STING Lucia ISG cells. The class given is cell-based. Conditions: THP-1 STING Lucia ISG cells, read-out: Cellular EC50 huSTING (HAQ).
The next assay concerns the target huSTING (WT) (Homo sapiens (Human), UniProt Q86WV6, H232R). Put plainly: THP-1 reporter cell line assay, THP-1-Dual KI-hSTING-R232 cells. The class given is cell-based. To be noted: read-out: Cellular EC50 huSTING (WT).
Setting [1] is: modified method, top concentration 40 μM, pin tool, EnVision.

Like-named read-outs stand apart in the source and are kept apart here.

Sequence of huSTING (HAQ) (Q86WV6 whole entry R71H/G230A/H232R/R293Q): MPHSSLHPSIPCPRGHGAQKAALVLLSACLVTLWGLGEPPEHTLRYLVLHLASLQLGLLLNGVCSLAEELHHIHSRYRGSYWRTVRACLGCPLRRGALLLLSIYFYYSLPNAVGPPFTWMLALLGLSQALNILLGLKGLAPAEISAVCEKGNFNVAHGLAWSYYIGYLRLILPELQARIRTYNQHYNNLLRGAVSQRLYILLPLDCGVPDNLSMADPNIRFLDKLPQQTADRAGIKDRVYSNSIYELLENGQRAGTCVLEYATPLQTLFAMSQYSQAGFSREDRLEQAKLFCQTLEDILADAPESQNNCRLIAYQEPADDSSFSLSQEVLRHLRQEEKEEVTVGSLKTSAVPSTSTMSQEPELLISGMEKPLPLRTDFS
Sequence of huSTING (WT) (Q86WV6 whole entry H232R): as the sequence (Q86WV6 whole entry R71H/G230A/H232R/R293Q) above, with H71R, A230G, Q293R counted along it

As to `CC(C)(C)C(=O)OCOC(=O)c1sc2cccc(Cl)c2c1COc1c(F)cc(C(N)=O)cc1F` [Example 173, (Pivaloyloxy)methyl 3-((4-carbamoyl-2,6-difluorophenoxy)methyl)-4-chlorobenzo[b]thiophene-2-carboxylate], the half-maximal effective concentration (EC50) is 55 nM at huSTING (HAQ) (setting [1]) and 208 nM on huSTING (WT).
The corresponding values for `CCC(=O)OC(OC(=O)c1sc2cccc(Cl)c2c1COc1c(F)cc(C(N)=O)cc1F)C(C)C` (centres unmarked) [Example 125, 2-Methyl-1-(propionyloxy)propyl 3-((4-carbamoyl-2,6-difluorophenoxy)methyl)-4-chlorobenzo[b]thiophene-2-carboxylate] are 86 nM and 529 nM.
For `Cc1ccc2sc(C(=O)OCOC(=O)C(C)(C)C)c(COc3ccc(C(N)=O)cc3)c2c1Cl` [Example 174, (Pivaloyloxy)methyl 3-((4-carbamoylphenoxy)methyl)-4-chloro-5-methylbenzo[b]thiophene-2-carboxylate], in that order: 4720 nM and 25600 nM.
The corresponding values for `COC(=O)c1sc2cccc(F)c2c1COc1ccc(C(N)=O)cc1` [Example 141, Methyl 3-((4-carbamoylphenoxy)methyl)-4-fluorobenzo[b]thiophene-2-carboxylate] are 1770 nM and 3340 nM.
For `CCOC(=O)c1sc2ccnc(Cl)c2c1COc1c(F)cc(C(N)=O)cc1F` [Example 91, Ethyl 3-((4-carbamoyl-2,6-difluorophenoxy)methyl)-4-chlorothieno[3,2-c]pyridine-2-carboxylate], the EC50 was determined as 270 nM on huSTING (HAQ) (setting [1]) and 862 nM on huSTING (WT).
For `CCOC(=O)c1sc2cccc(F)c2c1COc1ccc(C(N)=O)c(C(F)(F)F)c1` [Example 51, Ethyl 3-((4-carbamoyl-3-(trifluoromethyl)phenoxy)methyl)-4-fluorobenzo[b]thiophene-2-carboxylate], the EC50 is more than 50000 nM on huSTING (HAQ) (24 h, top concentration 50 μM) and more than 50000 nM at huSTING (WT).
Take `CCOC(=O)c1sc2cccc(OC)c2c1COc1ccc(C(N)=O)cc1` [Example 33, Ethyl 3-((4-carbamoylphenoxy)methyl)-4-methoxybenzo[b]thiophene-2-carboxylate]: the EC50 on huSTING (HAQ) (24 h, top concentration 50 μM) turned out to be 665 nM; on huSTING (WT), 891 nM.
Regarding `CCOC(=O)c1sc2cccc(OC)c2c1COc1c(F)cc(C(N)=O)cc1F` [Example 165, Ethyl 3-((4-carbamoyl-2,6-difluorophenoxy)methyl)-4-methoxybenzo[b]thiophene-2-carboxylate], the figures for the half-maximal effective concentration (EC50) on huSTING (HAQ) (setting [1]) and at huSTING (WT) were 127 nM and 6150 nM, respectively.
As for `CN(C)C(=O)OCOC(=O)c1sc2cccc(Cl)c2c1COc1c(F)cc(C(N)=O)cc1F` [Example 138, ((Dimethylcarbamoyl)oxy)methyl 3-((4-carbamoyl-2,6-difluorophenoxy)methyl)-4-chlorobenzo[b]thiophene-2-carboxylate], the 50% effective concentration (EC50) at huSTING (HAQ) (setting [1]) was found to be 14 nM; at huSTING (WT) it was 242 nM.
In the case of `CCOC(=O)c1sc2ccnc(OC)c2c1COc1c(F)cc(C(N)=O)cc1F` [Example 102, Ethyl 3-((4-carbamoyl-2,6-difluorophenoxy)methyl)-4-methoxythieno[3,2-c]pyridine-2-carboxylate], the values for the concentration giving a half-maximal response (EC50) on huSTING (HAQ) (setting [1]) and on huSTING (WT) were 53 nM and 377 nM, respectively.
Consider `CCOC(=O)c1sc2cccc(C3CC3)c2c1COc1ccc(C(N)=O)cc1` [Example 60, Ethyl 3-((4-carbamoylphenoxy)methyl)-4-cyclopropylbenzo[b]thiophene-2-carboxylate], for which the concentration giving a half-maximal response (EC50) is 827 nM at huSTING (HAQ) (24 h, top concentration 50 μM) and 47400 nM at huSTING (WT).
For `CCOC(=O)c1sc2cccc(C)c2c1COc1ccc(C(N)=O)cc1` [Example 77, Ethyl 3-((4-carbamoylphenoxy)methyl)-4-methylbenzo[b]thiophene-2-carboxylate], in that order: 702 nM and 3220 nM.
On to `CCOC(=O)c1sc2cccc(OCC)c2c1COc1c(F)cc(C(N)=O)cc1F` [Example 94, Ethyl 3-((4-carbamoyl-2,6-difluorophenoxy)methyl)-4-ethoxybenzo[b]thiophene-2-carboxylate], for which the half-maximal effective concentration (EC50) on huSTING (HAQ) (setting [1]) was 390 nM; at huSTING (WT) it was 1690 nM.
The corresponding values for `CCOC(=O)c1sc2c(COC)ccc(Cl)c2c1COc1c(F)cc(C(N)=O)cc1F` [Example 146, Ethyl 3-((4-carbamoyl-2,6-difluorophenoxy)methyl)-4-chloro-7-(methoxymethyl)benzo[b]thiophene-2-carboxylate] are 41 nM and 2150 nM.
On to `CCOC(=O)c1sc2cccc(Cl)c2c1COc1cc(F)c(C(N)=O)c(F)c1` [Example 27, Ethyl 3-((4-carbamoyl-3,5-difluorophenoxy)methyl)-4-chlorobenzo[b]thiophene-2-carboxylate], for which the EC50 is more than 50000 nM at huSTING (HAQ) (24 h, top concentration 50 μM) and more than 50000 nM on huSTING (WT).
Consider `CCOC(=O)c1sc2c(F)ccc(F)c2c1COc1ccc(C(N)=O)cc1` [Example 81, Ethyl 3-((4-carbamoylphenoxy)methyl)-4,7-difluorobenzo[b]thiophene-2-carboxylate], for which the EC50 on huSTING (HAQ) (24 h, top concentration 50 μM) was determined as 2790 nM; on huSTING (WT) it was 20700 nM.
For `CCOC(=O)c1sc2cc(Cl)cc(F)c2c1COc1ccc(C(N)=O)cc1` [Example 19, Ethyl 3-((4-carbamoylphenoxy)methyl)-6-chloro-4-fluorobenzo[b]thiophene-2-carboxylate], in that order: more than 50000 nM and more than 50000 nM.
The corresponding values for `CCOC(=O)c1sc2cccc(Cl)c2c1COc1c(OC)cc(C(N)=O)cc1OC` [Example 41, Ethyl 3-((4-carbamoyl-2,6-dimethoxyphenoxy)methyl)-4-chlorobenzo[b]thiophene-2-carboxylate] are 798 nM and 2460 nM.
Take `CCOC(=O)c1sc2cccc(C3CC3)c2c1COc1c(F)cc(C(N)=O)cc1F` [Example 142, Ethyl 3-((4-carbamoyl-2,6-difluorophenoxy)methyl)-4-cyclopropylbenzo[b]thiophene-2-carboxylate]: the concentration giving a half-maximal response (EC50) amounted to 181 nM on huSTING (HAQ) (setting [1]) and 3120 nM at huSTING (WT).
The corresponding values for `CCOC(=O)c1sc2c(O)ccc(Cl)c2c1COc1c(F)cc(C(N)=O)cc1F` [Example 147, Ethyl 3-((4-carbamoyl-2,6-difluorophenoxy)methyl)-4-chloro-7-hydroxybenzo[b]thiophene-2-carboxylate] are 65 nM and 1620 nM.
The corresponding values for `COc1cccc2sc(C(=O)OC3CCCC3)c(COc3ccc(C(N)=O)cc3)c12` [Example 155, Cyclopentyl 3-((4-carbamoylphenoxy)methyl)-4-methoxybenzo[b]thiophene-2-carboxylate] are 230 nM and 3820 nM.
The corresponding values for `CC(C)OC(=O)OC(C)OC(=O)c1sc2cccc(Cl)c2c1COc1c(F)cc(C(N)=O)cc1F` (centres unmarked) [Example 132, 1-((Isopropoxycarbonyl)oxy)ethyl 3-((4-carbamoyl-2,6-difluorophenoxy)methyl)-4-chlorobenzo[b]thiophene-2-carboxylate] are 97 nM and 916 nM.
For `CCOC(=O)c1sc2c(C#N)ccc(Cl)c2c1COc1c(F)cc(C(N)=O)cc1F` [Example 153, Ethyl 3-((4-carbamoyl-2,6-difluorophenoxy)methyl)-4-chloro-7-cyanobenzo[b]thiophene-2-carboxylate], the results for the half-maximal effective concentration (EC50) at huSTING (HAQ) (setting [1]) and on huSTING (WT) were 129 nM and 207 nM, respectively.
Regarding `CCOC(=O)c1sc2cccc(C#N)c2c1COc1ccc(C(N)=O)cc1` [Example 62, Ethyl 3-((4-carbamoylphenoxy)methyl)-4-cyanobenzo[b]thiophene-2-carboxylate], the EC50 amounted to 950 nM on huSTING (HAQ) (24 h, top concentration 50 μM) and 1650 nM on huSTING (WT).
Consider `CCC(=O)OC(OC(=O)c1sc2c(F)ccc(Br)c2c1COc1c(F)cc(C(N)=O)cc1F)C(C)C` (centres unmarked) [Example 140, 2-Methyl-1-(propionyloxy)propyl 4-bromo-3-((4-carbamoyl-2,6-difluorophenoxy)methyl)-7-fluorobenzo[b]thiophene-2-carboxylate], for which the EC50 was determined as 46 nM on huSTING (HAQ) (setting [1]) and 160 nM at huSTING (WT).
The corresponding values for `CC(OC(=O)OC(C)(C)C)OC(=O)c1sc2cccc(Cl)c2c1COc1c(F)cc(C(N)=O)cc1F` (centres unmarked) [Example 129, 1-((tert-Butoxycarbonyl)oxy)ethyl 3-((4-carbamoyl-2,6-difluorophenoxy)methyl)-4-chlorobenzo[b]thiophene-2-carboxylate] are 119 nM and 1580 nM.
With `CCOC(=O)c1sc2cccc(Cl)c2c1COc1c(F)cc(C(N)=O)cc1F` [Example 68, Ethyl 3-((4-carbamoyl-2,6-difluorophenoxy)methyl)-4-chlorobenzo[b]thiophene-2-carboxylate], the 50% effective concentration (EC50) at huSTING (HAQ) (24 h, top concentration 50 μM) worked out at 260 nM; on huSTING (WT) it was 1630 nM.
The corresponding values for `CCOC(=O)c1sc2cccc(Cl)c2c1COc1ccc(C(N)=O)c(F)c1` [Example 25, Ethyl 3-((4-carbamoyl-3-fluorophenoxy)methyl)-4-chlorobenzo[b]thiophene-2-carboxylate] are 1600 nM and 1420 nM.
As for `CCOC(=O)c1sc2cccc(Cl)c2c1COc1ccc(C(N)=O)c(F)c1F` [Example 66, Ethyl 3-((4-carbamoyl-2,3-difluorophenoxy)methyl)-4-chlorobenzo[b]thiophene-2-carboxylate], the EC50 at huSTING (HAQ) (24 h, top concentration 50 μM) is 8030 nM; on huSTING (WT) it was more than 50000 nM.
On to `CCOC(=O)c1sc2cccc(F)c2c1COc1ccc(C(N)=O)c(Cl)c1` [Example 49, Ethyl 3-((4-carbamoyl-3-chlorophenoxy)methyl)-4-fluorobenzo[b]thiophene-2-carboxylate], for which the EC50 at huSTING (HAQ) (24 h, top concentration 50 μM) is 17200 nM; on huSTING (WT), 24100 nM.
For `CC(C)(C)C(=O)OCOC(=O)c1sc2c(F)ccc(Br)c2c1COc1c(F)cc(C(N)=O)cc1F` [Example 131], the 50% effective concentration (EC50) on huSTING (HAQ) (setting [1]) amounted to 44 nM; at huSTING (WT), 57 nM.

The values above are taken from patent publication US11613525B2 (CTXT PTY LIMITED, priority 2018, dated 2023).
